Like-named read-outs stand apart in the source and are kept apart here.
What was measured:
[1] = biological target: T1, human somatostatin receptor subtype 2 (Homo sapiens, UniProt P30874); assay: cAMP assay for SST2R (inhibition of cAMP via human SST2 receptor); type: cell-based; conditions: Table B, read-out: SST2 potency
T1 construct: expressed in transfected cells
Text: cAMP Assay Protocol for SST2R:

[2] = biological target: human somatostatin receptor subtype 5 (Homo sapiens, UniProt P35346); assay: cAMP assay for SST5R (inhibition of cAMP via human SST5 receptor)
human somatostatin receptor subtype 5, sequence (P35346 whole entry): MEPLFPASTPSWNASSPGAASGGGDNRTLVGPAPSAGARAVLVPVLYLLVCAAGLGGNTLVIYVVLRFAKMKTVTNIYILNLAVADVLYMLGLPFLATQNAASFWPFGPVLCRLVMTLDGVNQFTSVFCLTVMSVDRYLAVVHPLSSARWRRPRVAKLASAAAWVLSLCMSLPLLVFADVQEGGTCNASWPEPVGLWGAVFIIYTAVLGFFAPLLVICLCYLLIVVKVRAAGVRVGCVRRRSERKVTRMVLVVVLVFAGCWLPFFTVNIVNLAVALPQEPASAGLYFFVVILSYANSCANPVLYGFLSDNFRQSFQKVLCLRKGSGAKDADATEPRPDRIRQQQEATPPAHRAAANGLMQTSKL

[3] = read-out: SST5 potency, inhibition of cAMP via human SST5 receptor, Table B

T1 sequence (P30874 whole entry): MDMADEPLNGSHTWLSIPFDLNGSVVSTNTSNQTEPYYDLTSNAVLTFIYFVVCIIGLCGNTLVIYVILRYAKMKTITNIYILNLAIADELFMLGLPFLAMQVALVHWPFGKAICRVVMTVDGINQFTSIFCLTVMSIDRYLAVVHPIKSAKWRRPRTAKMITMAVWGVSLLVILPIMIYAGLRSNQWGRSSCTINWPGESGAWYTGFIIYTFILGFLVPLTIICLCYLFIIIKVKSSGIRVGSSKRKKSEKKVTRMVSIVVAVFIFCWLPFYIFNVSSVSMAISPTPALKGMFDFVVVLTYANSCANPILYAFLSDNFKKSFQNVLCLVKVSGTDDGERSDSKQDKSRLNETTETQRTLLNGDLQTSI

Row | SMILES | EC50 [1] [nM] | EC50 [2] [nM] | Fold selectivity for SST5 vs SST2 ([2]; SST5 over SST2, class symbols) | EC50 [2, 3] [nM] | Fold selectivity for SST5 vs SST2 ([2]; SST5 over SST2, given as number (comparison compounds))
1 | Cc1ccnc2nc(-c3cncc(-c4cc(F)cc(C#N)c4)c3N3CCC(C)(N)C3)[nH]c12 (stereo not drawn) [Compound 2-108, 3-[4-(3-amino-3-methylpyrrolidin-1-yl)-5-{7-methyl-1H-imidazo[4,5-b]pyridin-2-yl}pyridin-3-yl]-5-fluorobenzonitrile] | 100 to 1000 | < 10 | ++ (++=100 to 499) | < 10 | 
2 | Cc1ccc(F)c2[nH]c(-c3cncc(-c4ccnc(C#N)c4)c3N3CC[C@H](N)C3)nc12 [Compound 2-106, 4-[(3S)-3-aminopyrrolidin-1-yl]-5-(7-fluoro-4-methyl-1H-1,3-benzodiazol-2-yl)-[3,4′-bipyridine]-2′-carbonitrile] | 100 to 1000 | < 10 | +++ (+++=≥500) | < 10 | 
3 | Cc1cccc2nc(-c3cncc(-c4cc(F)c(F)c(C#N)c4)c3N3CC[C@H](N)C3)[nH]c12 [Compound 2-139, 5-{4-[(3S)-3-aminopyrrolidin-1-yl]-5-(4-methyl-1H-1,3-benzodiazol-2-yl)pyridin-3-yl}-2,3-difluorobenzonitrile] | 10 to 100 | < 10 | ++ (++=100 to 499) | < 10 | 
4 | Cn1c(-c2cncc(-c3ccc(F)c(C#N)c3)c2N2CC[C@H](N)C2)nc2c(Cl)cccc21 [Compound 2-131, 5-{4-[(3S)-3-aminopyrrolidin-1-yl]-5-(4-chloro-1-methyl-1H-1,3-benzodiazol-2-yl)pyridin-3-yl}-2-fluorobenzonitrile] | > 1000 | 10 to 100 | +++ (+++=≥500) | 10 to 100 | 
5 | Cc1cccc2nc(-c3cncc(-c4ccnc(C#N)c4)c3N3CC[C@H](N)C3)[nH]c12 [Compound 2-128, 4-[(3S)-3-aminopyrrolidin-1-yl]-5-(4-methyl-1H-1,3-benzodiazol-2-yl)-[3,4′-bipyridine]-2′-carbonitrile] | 100 to 1000 | < 10 | +++ (+++=≥500) | < 10 | 
6 | N#Cc1cc(-c2cncc(-c3nc4c(F)ccc(F)c4[nH]3)c2N2CC[C@H](N)C2)ccc1F [Compound 2-44, 5-{4-[(3S)-3-aminopyrrolidin-1-yl]-5-(4,7-difluoro-1H-1,3-benzodiazol-2-yl)pyridin-3-yl}-2-fluorobenzonitrile] | 100 to 1000 | < 10 | +++ (+++=≥500) | < 10 | 
7 | Cc1ccnc2nc(-c3cncc(-c4cc(F)c(F)c(C#N)c4)c3N3CCC(C)(N)C3)[nH]c12 (stereo not drawn) [Compound 2-140, 5-[4-(3-amino-3-methylpyrrolidin-1-yl)-5-{7-methyl-1H-imidazo[4,5-b]pyridin-2-yl}pyridin-3-yl]-2,3-difluorobenzonitrile] | 10 to 100 | < 10 | ++ (++=100 to 499) | < 10 | 
8 | N#Cc1cc(-c2cncc(-c3nc4cccc(F)c4[nH]3)c2N2CC[C@H](N)C2)ccc1Cl [Compound 2-39, 5-{4-[(3S)-3-aminopyrrolidin-1-yl]-5-(4-fluoro-1H-1,3-benzodiazol-2-yl)pyridin-3-yl}-2-chlorobenzonitrile] | 100 to 1000 | < 10 | ++ (++=100 to 499) | < 10 | 
9 | Cc1ccc(-c2cncc(-c3nc4c(F)ccc(F)c4[nH]3)c2N2CC[C@H](N)C2)cc1C#N [Compound 2-49, 5-{4-[(3S)-3-aminopyrrolidin-1-yl]-5-(4,7-difluoro-1H-1,3-benzodiazol-2-yl)pyridin-3-yl}-2-methylbenzonitrile] | 100 to 1000 | < 10 | ++ (++=100 to 499) | < 10 | 
10 | Cc1cnc2nc(-c3cncc(-c4ccc(F)c(C#N)c4)c3N3CC[C@](C)(N)C3)[nH]c2c1 [Compound 2-170, 5-{4-[(3S)-3-amino-3-methylpyrrolidin-1-yl]-5-{6-methyl-1H-imidazo[4,5-b]pyridin-2-yl}pyridin-3-yl}-2-fluorobenzonitrile] | > 1000 | < 10 | +++ (+++=≥500) | < 10 | 
11 | Cc1cccc2c1nc(-c1cncc(-c3ccc(F)c(C#N)c3)c1N1CC[C@H](N)C1)n2C [Compound 2-132, 5-{4-[(3S)-3-aminopyrrolidin-1-yl]-5-(1,4-dimethyl-1H-1,3-benzodiazol-2-yl)pyridin-3-yl}-2-fluorobenzonitrile] | > 1000 | < 10 | +++ (+++=≥500) | < 10 | 
12 | Cc1cccc(-c2cncc(-c3nc4c(C)cccc4[nH]3)c2N2CCC(N)CC2)c1 | < 10 | > 1000 |  |  | 0.002
13 | CCn1c(-c2cncc(-c3ccc(F)c(C#N)c3)c2N2CC[C@H](N)C2)nc2c(F)cccc21 [Compound 2-142, 5-{4-[(3S)-3-aminopyrrolidin-1-yl]-5-(1-ethyl-4-fluoro-1H-1,3-benzodiazol-2-yl)pyridin-3-yl}-2-fluorobenzonitrile] | > 1000 | < 10 | +++ (+++=≥500) | < 10 | 
14 | Cc1cc(F)cc(-c2cncc(-c3nc4c(F)cc(F)cc4[nH]3)c2N2CC(CN)C2)c1 [Compound 1-7, 1-{1-[3-(4,6-difluoro-1H-1,3-benzodiazol-2-yl)-5-(3-fluoro-5-methylphenyl)pyridin-4-yl]azetidin-3-yl}methanamine] | > 1000 | < 10 | +++ (+++=≥500) | < 10 | 
15 | N#Cc1cc(-c2cncc(-c3nc4cccc(F)c4[nH]3)c2N2CC[C@H](N)C2)ccc1F [Compound 2-23, 5-{4-[(3S)-3-aminopyrrolidin-1-yl]-5-(4-fluoro-1H-1,3-benzodiazol-2-yl)pyridin-3-yl}-2-fluorobenzonitrile] | 100 to 1000 | < 10 | +++ (+++=≥500) | < 10 | 

The next lines start with the values.

Row | EC50 [1] [nM] | EC50 [2] [nM] | Fold selectivity for SST5 vs SST2 ([2]; SST5 over SST2, class symbols) | EC50 [2, 3] [nM] | Fold selectivity for SST5 vs SST2 ([2]; SST5 over SST2, given as number (comparison compounds)) | SMILES
16 | > 1000 | < 10 | +++ (+++=≥500) | < 10 |  | Cc1cc(F)cc(-c2cncc(-c3nc4cccc(C)c4[nH]3)c2N2CC(CN)C2)c1 [Compound 1-9, 1-{1-[3-(3-fluoro-5-methylphenyl)-5-(4-methyl-1H-1,3-benzodiazol-2-yl)pyridin-4-yl]azetidin-3-yl}methanamine]
17 | > 1000 | 10 to 100 | +++ (+++=≥500) | 10 to 100 |  | Cc1cc(F)cc(-c2cncc(-c3nc4cccc(C#N)c4[nH]3)c2N2CC(CN)C2)c1 [Compound 1-5, 2-{4-[3-(aminomethyl)azetidin-1-yl]-5-(3-fluoro-5-methylphenyl)pyridin-3-yl}-1H-1,3-benzodiazole-4-carbonitrile]
18 | 100 to 1000 | < 10 | ++ (++=100 to 499) | < 10 |  | Cc1cc(F)cc(-c2cncc(-c3nc4cccc(Cl)c4[nH]3)c2N2CC(CN)C2)c1 [Compound 1-3, 1-{1-[3-(4-chloro-1H-1,3-benzodiazol-2-yl)-5-(3-fluoro-5-methylphenyl)pyridin-4-yl]azetidin-3-yl}methanamine]
19 | 100 to 1000 | < 10 | ++ (++=100 to 499) | < 10 |  | Cc1cc(F)cc2nc(-c3cncc(-c4cc(F)cc(C#N)c4)c3N3CC[C@H](N)C3)[nH]c12 [Compound 2-79, 3-{4-[(3S)-3-aminopyrrolidin-1-yl]-5-(6-fluoro-4-methyl-1H-1,3-benzodiazol-2-yl)pyridin-3-yl}-5-fluorobenzonitrile]
20 | 100 to 1000 | < 10 | +++ (+++=≥500) | < 10 |  | CC1(N)CCN(c2c(-c3cc(F)cc(C(N)=O)c3)cncc2-c2nc3cccc(F)c3[nH]2)C1 (stereo not drawn) [Compound 2-20, 3-[4-(3-amino-3-methylpyrrolidin-1-yl)-5-(4-fluoro-1H-1,3-benzodiazol-2-yl)pyridin-3-yl]-5-fluorobenzamide]
21 | 100 to 1000 | < 10 | ++ (++=100 to 499) | < 10 |  | Cc1cccc2nc(-c3cncc(-c4cc(F)cc(C(N)=O)c4)c3N3CC[C@H](N)C3)[nH]c12 [Compound 2-65, 3-{4-[(3S)-3-aminopyrrolidin-1-yl]-5-(4-methyl-1H-1,3-benzodiazol-2-yl)pyridin-3-yl}-5-fluorobenzamide]
22 | > 1000 | < 10 | +++ (+++=≥500) | < 10 |  | CC(N)C1(C)CN(c2c(-c3cccc(C#N)c3)cncc2-c2nc3cc(F)cc(F)c3[nH]2)C1 (stereo not drawn) [Compound 1-70, 3-{4-[3-(1-aminoethyl)-3-methylazetidin-1-yl]-5-(4,6-difluoro-1H-1,3-benzodiazol-2-yl)pyridin-3-yl}benzonitrile]
23 | > 1000 | < 10 | +++ (+++=≥500) | < 10 |  | CC(N)C1(C)CN(c2c(-c3cccc(F)c3)cncc2-c2nc3cc(F)cc(F)c3[nH]2)C1 (stereo not drawn) [Compound 1-68, 1-{1-[3-(4,6-difluoro-1H-1,3-benzodiazol-2-yl)-5-(3-fluorophenyl)pyridin-4-yl]-3-methylazetidin-3-yl}ethan-1-amine]
24 | > 1000 | < 10 | +++ (+++=≥500) | < 10 |  | Cc1cc(F)cc(-c2cncc(-c3nc4c(F)ccc(F)c4[nH]3)c2N2CC(CN)C2)c1 [Compound 1-37, 1-{1-[3-(4,7-difluoro-1H-1,3-benzodiazol-2-yl)-5-(3-fluoro-5-methylphenyl)pyridin-4-yl]azetidin-3-yl}methanamine]
25 | 100 to 1000 | < 10 | +++ (+++=≥500) | < 10 |  | CC1(N)CCN(c2c(-c3cccc(C#N)c3)cncc2-c2nc3cccc(F)c3[nH]2)C1 (stereo not drawn) [Compound 2-13, 3-[4-(3-amino-3-methylpyrrolidin-1-yl)-5-(4-fluoro-1H-1,3-benzodiazol-2-yl)pyridin-3-yl]benzonitrile]

Source: US11608335B2, “Somatostatin modulators and uses thereof” (CRINETICS PHARMACEUTICALS, INC., priority 2018, dated 2023)
